Data as given in US9403805B2, “Antiviral compounds” (Hoffmann-La Roche Inc., priority 2012, dated 2016).

test system: HCV GT1b replicon; experiment: HCV GT1b replicon luciferase reporter assay (2209-23 cells); format: cell-based; details: Hepatitis C virus, genotype 1a / genotype 1b; 2209-23 cells (Huh-7 with GT-1b Con1 subgenomic replicon), Renilla luciferase read 72 hours after compound addition; read-out: GT-1a - EC50 (nM) HCV, GT1b, IC50 (µM)
Description: Determination of compounds HCV GT1b inhibitory replicon activity using the replicon luciferase reporter assay
The 2209-23 cell line was developed at Roche by stable transfection of the hepatoma cell line Huh-7 with a GT-1b Con1 subgenomic bicistronic replicon as previously described. Subgenomic replicon cell line was established in cured Huh7 cells, obtained from R. Bartenschlager (J Virol. 2003 March; 77 (5):3007-19) The GT-1a H77 subgenomic replicon vector pRLuc H77 1b 75 S/I, was created by replacing the nonstructural region of the GT-1b Con1 subgenomic replicon by the one of the H77 strain, except for the first 75 amino acids of the NS3 protein that are from GT-1b Conl strain. (J. Virol. 2001 77:5352-59) The GT-1a pRLuc H77 1b 75 S/I subgenomic replicon cell line was established in cured Huh7 cells, obtained from R. Bartenschlager. (J Virol. 2003 March; 77 (5):3007-19)
All the subgenomic replicon cell lines were cultured in Dulbecco's Modified Eagle Medium (DMEM-Glutamax™-I; Invitrogen Cat #10569-010). The medium was supplemented with 10% Fetal Bovine Serum (Invitrogen Cat #10082-147), 1% penicillin/streptomycin (Mediatech Cat #30-002-CI) and 500 μg/ml of G418 (Mediatech Cat #30-234-CI). Cells were maintained at 37° C. in a humidified 5% CO2 atmosphere.
2209-23 cells were plated at a cell density of 5000 cells per well in 96 well plates (Becton Dickinson, Cat #35 3296). Cells were plated in 90 μl of Dulbecco's Modified Eagle Medium (DMEM-Glutamax™-I), (Invitrogen Cat #10569-010) medium was supplemented with 5% Fetal Bovine Serum (Invitrogen Cat #10082-147), 1% penicillin/streptomycin (Mediatech Cat #30-002-CI). The pRluc H77 1b 75 SA cells were plated in 96-well plate at 3000 cells/well in DMEM-Glutamax™-I containing 5% FBS and 1% penicillin/streptomycin in 90 μl final volume. Cells were allowed to equilibrate for 24 hours at 37° C. and 5% CO2 at which time compounds were added. Compounds (or medium as a control) were added 24 hours post-plating in 3 fold dilutions at a final DMSO concentration of 1% in 10 μl volume. Renilla luciferase reporter signal was read 72 hours after addition of compounds using the Renilla Luciferase Assay System (Promega, cat #E2820). EC50 values were defined as the compound concentration at which a 50% reduction in the levels of renilla luciferase reporter was observed as compared to control samples in the absence of compound and was determined by non-linear fitting of compound dose-response data. The EC50 was approximated if maximum percentage inhibition was less than 90% and more than 70%.

| SMILES | IC50 |
| --- | --- |
| CC(C)(C)OC(=O)[C@@H]1C[C@H](NC(=O)c2ccc3ccccc3c2O)CN1CC1CCCCC1 [Compound I-1, (2S,4S)-1-Cyclohexylmethyl-4-[(1-hydroxy-naphthalene-2-carbonyl)-amino]-pyrrolidine-2-carboxylic acid tert-butyl ester] | 47 nM |
| COC(=O)[C@@H]1C[C@H](NC(=O)c2ccc3ccccc3c2O)CN1CCC(C)(C)C [Compound I-2, (2S,4S)-1-(3,3-Dimethyl-butyl)-4-[(1-hydroxy-naphthalene-2-carbonyl)-amino]-pyrrolidine-2-carboxylic acid methyl ester] | 79 nM |
| CCOC(=O)[C@@H]1C[C@H](NC(=O)c2ccc3ccccc3c2O)CCN1CC1CCCCC1 [Compound I-3, (2S,4R)-1-Cyclohexylmethyl-4-[(1-hydroxy-naphthalene-2-carbonyl)-amino]-piperidine-2-carboxylic acid ethyl ester] | 51 nM |
| CCOC(=O)[C@@H]1C[C@H](NC(=O)c2ccc3ccccc3c2O)CN1CC1CCCCC1 [Compound I-4, (2S,4S)-1-Cyclohexylmethyl-4-[(1-hydroxy-naphthalene-2-carbonyl)-amino]-pyrrolidine-2-carboxylic acid ethyl ester] | 29 nM |
| O=C(N[C@H]1C[C@@H](c2nc3ccccc3o2)N(CC2CCCCC2)C1)c1ccc2ccccc2c1O [Compound I-5, 1-Hydroxy-naphthalene-2-carboxylic acid ((3S,5S)-5-benzooxazol-2-yl-1-cyclohexylmethyl-pyrrolidin-3-yl)-amide] | 52 nM |
| COC(=O)[C@@H]1C[C@H](NC(=O)c2ccc3ccccc3c2O)CCN1CC1CCCCC1 [Compound I-6, (2S,4R)-1-Cyclohexylmethyl-4-[(1-hydroxy-naphthalene-2-carbonyl)-amino]-piperidine-2-carboxylic acid methyl ester] | 55 nM |
| Cc1cnc([C@@H]2C[C@H](NC(=O)c3ccc4ccccc4c3O)CN2CC2CCCCC2)o1 [Compound I-7, 1-Hydroxy-naphthalene-2-carboxylic acid [(3S,5S)-1-cyclohexylmethyl-5-(5-methyl-oxazol-2-yl)-pyrrolidin-3-yl]-amide] | 70 nM |
| O=C(N[C@H]1C[C@@H](c2ncc(-c3ccccc3)o2)N(CC2CCCCC2)C1)c1ccc2ccccc2c1O [Compound I-8, 1-Hydroxy-naphthalene-2-carboxylic acid [(3S,5S)-1-cyclohexylmethyl-5-(5-phenyl-oxazol-2-yl)-pyrrolidin-3-yl]-amide] | 86 nM |
| O=C(N[C@H]1C[C@@H](c2ncco2)N(CC2CCCCC2)C1)c1ccc2ccccc2c1O [Compound I-9, 1-Hydroxy-naphthalene-2-carboxylic acid ((3S,5S)-1-cyclohexylmethyl-5-oxazol-2-yl-pyrrolidin-3-yl)-amide] | 114 nM |
| COC(=O)[C@@H]1C[C@H](NC(=O)c2ccc3ccccc3c2O)CN1CC1CCCCC1 [Compound I-10, (2S,4S)-1-Cyclohexylmethyl-4-[(1-hydroxy-naphthalene-2-carbonyl)-amino]-pyrrolidine-2-carboxylic acid methyl ester] | 120 nM |
| COC(=O)[C@@H]1C[C@H](NC(=O)c2ccc3ccccc3c2O)CN1Cc1ccccc1 [Compound I-11, (2S,4S)-1-Benzyl-4-[(1-hydroxy-naphthalene-2-carbonyl)-amino]-pyrrolidine-2-carboxylic acid methyl ester] | 121 nM |
| CCOC(=O)[C@@H]1C[C@H](NC(=O)c2ccc3ccccc3c2O)CN1CC1CCCC1 [Compound I-12, (2S,4S)-1-Cyclopentylmethyl-4-[(1-hydroxy-naphthalene-2-carbonyl)-amino]-pyrrolidine-2-carboxylic acid ethyl ester] | 129 nM |
| O=C(N[C@H]1C[C@@H](C(=O)NCc2ccccc2)N(CC2CCCCC2)C1)c1ccc2ccccc2c1O [Compound I-13, (2S,4S)-1-Cyclohexylmethyl-4-[(1-hydroxy-naphthalene-2-carbonyl)-amino]-pyrrolidine-2-carboxylic acid benzylamide] | 163 nM |
| CCOC(=O)[C@@H]1C[C@H](NC(=O)c2ccc3ccccc3c2O)CN1C(=O)C1CCCCC1 [Compound I-14, (2S,4S)-1-Cyclohexanecarbonyl-4-[(1-hydroxy-naphthalene-2-carbonyl)-amino]-pyrrolidine-2-carboxylic acid ethyl ester] | 184 nM |
| CC(C)NC(=O)[C@@H]1C[C@H](NC(=O)c2ccc3ccccc3c2O)CN1CC1CCCCC1 [Compound I-15, (2S,4S)-1-Cyclohexylmethyl-4-[(1-hydroxy-naphthalene-2-carbonyl)-amino]-pyrrolidine-2-carboxylic acid isopropylamide] | 187 nM |
| CCCNC(=O)[C@@H]1C[C@H](NC(=O)c2ccc3ccccc3c2O)CN1CC1CCCCC1 [Compound I-16, (2S,4S)-1-Cyclohexylmethyl-4-[(1-hydroxy-naphthalene-2-carbonyl)-amino]-pyrrolidine-2-carboxylic acid propylamide] | 205 nM |
| CCOC(=O)[C@@H]1C[C@H](NC(=O)c2ccc3ccccc3c2O)CN1CC1CCC1 [Compound I-17, (2S,4S)-1-Cyclobutylmethyl-4-[(1-hydroxy-naphthalene-2-carbonyl)-amino]-pyrrolidine-2-carboxylic acid ethyl ester] | 219 nM |
| CCNC(=O)[C@@H]1C[C@H](NC(=O)c2ccc3ccccc3c2O)CN1CC1CCCCC1 [Compound I-18, (2S,4S)-1-Cyclohexylmethyl-4-[(1-hydroxy-naphthalene-2-carbonyl)-amino]-pyrrolidine-2-carboxylic acid ethylamide] | 221 nM |
| CCNC(=O)[C@@H]1C[C@H](NC(=O)c2ccc3ccccc3c2O)CCN1CC1CCCCC1 [Compound I-19, (2S,4R)-1-Cyclohexylmethyl-4-[(1-hydroxy-naphthalene-2-carbonyl)-amino]-piperidine-2-carboxylic acid ethylamide] | 223 nM |
| COC(=O)[C@H]1C[C@H](NC(=O)c2ccc3ccccc3c2O)CN1CC1CCCCC1 [Compound I-20, (2R,4S)-1-Cyclohexylmethyl-4-[(1-hydroxy-naphthalene-2-carbonyl)-amino]-pyrrolidine-2-carboxylic acid methyl ester] | 233 nM |
| COC(=O)[C@]1(C)C[C@H](NC(=O)c2ccc3ccccc3c2O)CN1CC1CCCCC1 [Compound I-21, (2S,4S)-1-Cyclohexylmethyl-4-[(1-hydroxy-naphthalene-2-carbonyl)-amino]-2-methyl-pyrrolidine-2-carboxylic acid methyl ester] | 247 nM |
| CCOC(=O)[C@@H]1C[C@H](NC(=O)c2ccc3ccccc3c2O)CN1CC(C)C [Compound I-22, (2S,4S)-4-[(1-Hydroxy-naphthalene-2-carbonyl)-amino]-1-isobutyl-pyrrolidine-2-carboxylic acid ethyl ester] | 299 nM |
| COC(=O)[C@@H]1C[C@H](NC(=O)c2ccc3ccccc3c2N)CN1CC1CCCCC1 [Compound I-23, (2S,4S)-4-[(1-Amino-naphthalene-2-carbonyl)-amino]-1-cyclohexylmethyl-pyrrolidine-2-carboxylic acid methyl ester] | 336 nM |
| CCOC(=O)[C@@H]1C[C@H](NC(=O)c2ccc3cccnc3c2O)CN1CC1CCCCC1 [Compound I-24, (2S,4S)-1-Cyclohexylmethyl-4-[(8-hydroxy-quinoline-7-carbonyl)-amino]-pyrrolidine-2-carboxylic acid ethyl ester] | 367 nM |
| NC(=O)[C@@H]1C[C@H](NC(=O)c2ccc3ccccc3c2O)CN1CC1CCCCC1 [Compound I-25, (2S,4S)-1-Cyclohexylmethyl-4-[(1-hydroxy-naphthalene-2-carbonyl)-amino]-pyrrolidine-2-carboxylic acid amide] | 509 nM |
| O=C(N[C@H]1C[C@@H](C(=O)N2CCCC2)N(CC2CCCCC2)C1)c1ccc2ccccc2c1O [Compound I-26, 1-Hydroxy-naphthalene-2-carboxylic acid [(3S,5S)-1-cyclohexylmethyl-5-(pyrrolidine-1-carbonyl)-pyrrolidin-3-yl]-amide] | 640 nM |
| CCOC(=O)[C@@H]1C[C@@H](NC(=O)c2ccc3ccccc3c2O)CN1Cc1ccccc1 [Compound I-27, (2S,4R)-1-Benzyl-4-[(1-hydroxy-naphthalene-2-carbonyl)-amino]-pyrrolidine-2-carboxylic acid ethyl ester] | 659 nM |
